Test [1] has as its target T1, SERT (Homo sapiens, UniProt P31645).
T1 construct: from tissue; host or cells: living patients' brain: hypothalamus, thalamus, pons (extrastriatal regions)
Particulars: cited from earlier work.

For test [2], the target named is T1, SERT. In words: Voxel-based analysis of [123I]FP-CIT SPECT, extrastriatal binding. The format is in vivo. The settings on record: groups without SSRI users. As for the experimental part: All voxels in the [^123I]FP-CIT SPECT scan were adjusted by the mean binding in the cerebellar reference region according to: [(voxel−REF)/REF]. Voxel-based between-group analyses were performed in SPM8 and explicitly masked for the relevant ROI, using the same masks as the ROI analysis. Statistical threshold was set to P<0.05, Family-Wise Error (FWE) corrected for multiple comparisons, Ke>0. Age was included as nuisance covariate in all analyses.
Masks were based on the Automated anatomical labeling (AAL) atlas and created with the Wake-Forest University PickAtlas tool 3.0. Finally, the results of groups on SSRIs versus not being on a SSRI while scanned were compared with a ROI analysis.
Voxel-Based, Groups without SSRI Users, Extrastriatal Binding

The target of a further test is DAT (Homo sapiens, UniProt Q01959). Particulars: without SSRI users, reference cerebellum. An excerpt:
For this retrospective study, a selection was made from a database of patients diagnosed with either PD, MSA or PSP and for whom a [^123I]FP-CIT-SPECT scan was available. Diagnoses of patients were verified using their medical records. Patients no longer receiving treatment or clinical follow-up were approached by letter and diagnoses were retrieved from their current attending neurologist. This procedure was approved by the local Medical Ethics Committee of the VUmc and all patients provided written informed consent. […] Prior to analysis of [^123I]FP-CIT-SPECT binding ratios (BR), MSA and PSP patients were manually age and gender-matched with 30 PD patients from a research database.
All patients received oral potassium perchlorate to block thyroid uptake of free radioactive iodide. [^123I]FP-CIT was injected intravenously 3 hours before image acquisition at an approximate dose of 185 MBq (specific activity >185 MBq/nmol; radiochemical purity >99%). Subjects were imaged using a dual-head gamma camera (E.Cam; Siemens. Munich. Germany) with a fan-beam collimator. 60×30 second views per head over a 180° orbit on a 128×128 pixel matrix were acquired resulting in a total imaging time of 30 minutes. Image reconstruction was performed using a filtered back projection with a Butterworth filter (order 8. cut-off 0.6 cycles/cm; voxel size: 3.9 mm^3 after reconstruction). Scans were reoriented manually to ensure that left and right striatum were aligned.
ROIs were defined for the DAT-rich caudate nucleus and the SERT-rich thalamus from the automated anatomical labelling (AAL) atlas; the DAT-rich posterior putamen was bilaterally based on the AAL atlas as described elsewhere (Vriend, C. et al. 2014 Mov Disord; 29: 904-11) the SERT-rich pons ROI was based on the Talairach Daemon (TD) Lobes atlas; and the SERT-rich hypothalamus ROI was based on the TD Brodmann area+atlas and 2× dilated. All of these ROIs are implemented in the WFU Pickatlas 3.0 (Wake Forest University, Winston-Salem, N.C., USA).
Non-specific [^123I]FP-CIT binding in the cerebellum was used as a reference (REF) (WFU Pickatlas, AAL atlas; bilateral Crus 2), because the cerebellum is relatively devoid of DAT and SERT. The ratio of specific to non-specific binding (BR), was calculated in Statistical Parametric Mapping Software version 8 (SPM8; Wellcome Trust Centre for Neuroimaging. London. UK) by: [(ROI−REF)/REF], and used as the outcome measure.
Patient analyses were grouped by diagnosis (PD; MSA-P; MSA-C; PSP). MSA was split, since a difference is expected between DAT binding in MSA-P and MSA-C (Munoz E., et al. 2011 J Neurol; 258: 2248-2253).
For the ROI analysis, normality of data was assessed by plotting histograms, examining Q-Q plots and Kolmogorov-Smirnov test for normality. One-way ANOVA tests were used where appropriate. Post-hoc testing was done with Hochberg GT2 correction. An alpha level of 0.05 was used.
ROI analysis in groups without SSRI users (total group n=48: MSA-C=7; MSA-P=6; PSP=10; PD=25)

Test [3] deals with dopamine transporter (DAT) (Homo sapiens, UniProt Q01959). The settings on record: presynaptic membrane of dopaminergic neurons; cited from earlier work.
Test [4] concerns the target serotonin transporter (SERT) (Homo sapiens, UniProt P31645). Particulars: Abi-Dargham et al. 1996; cited from earlier work.
Test [5] has as its target T1, SERT. In words: [123I]FP-CIT SPECT ROI analysis, extrastriatal (hypothalamus) binding ratios. The format is in vivo. The settings on record: without SSRI users, reference cerebellum. An excerpt:
Diagnoses of patients were verified using their medical records. […]
One-way ANOVA tests were used where appropriate. Post-hoc testing was done with Hochberg GT2 correction. An alpha level of 0.05 was used.

Like-named read-outs stand apart in the source and are kept apart here.

The text below walks through data of patent publication US10980899B2, “Differential diagnosis” (GE Healthcare Limited, priority 2016, dated 2021).

T1 sequence (P31645 whole entry): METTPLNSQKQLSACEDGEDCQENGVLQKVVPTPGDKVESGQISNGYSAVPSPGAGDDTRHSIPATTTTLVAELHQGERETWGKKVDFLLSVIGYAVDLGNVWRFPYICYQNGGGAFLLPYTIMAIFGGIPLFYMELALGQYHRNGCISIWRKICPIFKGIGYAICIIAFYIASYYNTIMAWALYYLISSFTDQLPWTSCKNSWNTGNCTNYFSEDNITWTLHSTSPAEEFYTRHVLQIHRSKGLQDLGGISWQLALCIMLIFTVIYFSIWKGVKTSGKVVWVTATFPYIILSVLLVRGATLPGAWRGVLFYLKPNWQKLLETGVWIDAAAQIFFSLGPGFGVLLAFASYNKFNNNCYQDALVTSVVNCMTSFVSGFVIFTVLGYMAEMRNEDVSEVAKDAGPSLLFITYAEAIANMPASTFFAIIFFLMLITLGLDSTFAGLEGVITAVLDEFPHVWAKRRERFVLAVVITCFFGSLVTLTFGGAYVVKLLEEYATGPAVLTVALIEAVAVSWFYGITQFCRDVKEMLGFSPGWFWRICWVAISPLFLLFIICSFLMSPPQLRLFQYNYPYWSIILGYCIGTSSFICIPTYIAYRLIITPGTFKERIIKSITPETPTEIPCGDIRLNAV
Chain of DAT (Q01959 whole entry): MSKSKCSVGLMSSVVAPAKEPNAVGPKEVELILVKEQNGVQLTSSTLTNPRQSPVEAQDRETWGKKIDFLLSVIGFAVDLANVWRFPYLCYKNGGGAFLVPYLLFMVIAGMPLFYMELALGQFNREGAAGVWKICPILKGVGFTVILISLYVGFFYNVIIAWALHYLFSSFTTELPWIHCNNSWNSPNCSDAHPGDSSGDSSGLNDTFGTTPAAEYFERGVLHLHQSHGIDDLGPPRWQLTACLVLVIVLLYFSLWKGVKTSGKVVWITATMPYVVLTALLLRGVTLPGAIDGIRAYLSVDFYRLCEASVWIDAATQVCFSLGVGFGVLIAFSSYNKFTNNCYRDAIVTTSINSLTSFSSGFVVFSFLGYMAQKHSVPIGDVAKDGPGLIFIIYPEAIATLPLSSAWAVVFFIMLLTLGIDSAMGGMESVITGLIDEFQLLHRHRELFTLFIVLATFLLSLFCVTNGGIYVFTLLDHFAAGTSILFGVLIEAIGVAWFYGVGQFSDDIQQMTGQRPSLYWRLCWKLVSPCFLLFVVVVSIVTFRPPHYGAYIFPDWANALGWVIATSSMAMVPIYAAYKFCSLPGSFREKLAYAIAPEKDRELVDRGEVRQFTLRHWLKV
Chain of serotonin transporter (SERT) (P31645 whole entry, species assumed): as the sequence (P31645 whole entry) above
Chain of dopamine transporter (DAT) (Q01959 whole entry, species assumed): as the sequence (Q01959 whole entry) above

For `COC(=O)[C@H]1[C@@H](c2ccc([123I])cc2)C[C@@H]2CC[C@H]1N2CCCF` [[^123I]FP-CIT, [^123I]N-w-fluoropropyl-2β-carbomethoxy-3β-(4-iodophenyl) nortropane], the “hypothalamus binding, MSA-P and PSP vs PD” value at SERT [1] (Joling et al. 2016) was “lower binding in the hypothalamus in MSA-P and PSP patients than in PD patients”. Moreover, the “midbrain binding, PSP vs PD” value on SERT [1] (Roselli et al. 2010) is on record as “lower in PSP patients than in PD patients”. For the same molecule, the “hypothalamus binding ratios, between-group comparison (voxel-based)” value at SERT [2] (MSA-C vs PSP) is on record as “higher binding ratios in hypothalamus in MSA-C than in PSP”. In addition, on SERT [2] (PD vs MSA-P or PSP), the “hypothalamus binding, between-group comparison (voxel-based)” value is given as “statistically significantly higher in PD than in MSA-P or PSP”. The “mean [123I]FP-CIT binding ratio, left caudate” value is recorded as 1.99 on DAT (MSA-C patients), 1.87 on DAT (PD patients) and 1.28 at DAT (PSP patients). Further, the “mean [123I]FP-CIT binding ratio, left posterior putamen” value on DAT (MSA-C patients) worked out at 2.12; on DAT (MSA-P patients), 1.36; on DAT (PD patients), 1.58; on DAT (PSP patients), 1.29. The “mean [123I]FP-CIT binding ratio, right caudate” value was determined as 2.16 on DAT (MSA-C patients), 1.92 at DAT (PD patients) and 1.39 at DAT (PSP patients). Also, the entries for the “mean [123I]FP-CIT binding ratio, right posterior putamen” value at DAT (MSA-C patients) and at DAT (MSA-P patients) were 1.95 and 1.19, respectively. Also, the “affinity to the dopamine transporter (DAT)” value in test [3] was “high affinity”. In addition, the “affinity for the serotonin transporter (SERT)” value in test [4] is “modest affinity”. In addition, the “mean hypothalamic [123I]FP-CIT binding ratio” value on SERT [5] (MSA-C patients) is 0.78; at SERT [5] (MSA-P patients), 0.45; at SERT [5] (PD patients), 0.67; at SERT [5] (PSP patients), 0.47.
